From US7135492B2, “1,3-disubstituted-2- thioxo-imidazolidine-4,5-dione derivatives useful in the treatment of atherosclerosis” (Wyeth, priority 2001, dated 2006)

Columns and labels:
[1] = tested on: blood serum HDL cholesterol; test: Determination of serum HDL cholesterol in cholesterol/cholic acid-fed rats; assay type: in vivo; details: Rattus norvegicus, feed or water, 192 h; male Sprague-Dawley rats, diet supplemented with 0.25% cholic acid and 1.0% cholesterol; 100 mg/kg mixed in diet; eight days; serum HDL-C by FPLC; read-out: HDL Cholesterol Level Increase (%)
Experimental: The ability of the compounds of this invention to increase blood serum HDL levels was established by the following standard experimental procedure for determination of HDL cholesterol:
Male Sprague-Dawley rats weighing 200–225 g were housed two per cage and fed Purina Rodent Chow Special Mix 5001-S supplemented with 0.25% cholic acid and 1.0% cholesterol and water ad libitum for 8 days. Each test substance was administered to a group of six rats fed the same diet with the test diet mixed in as 0.005–0.1% of the total diet. Body weight and food consumption were recorded prior to diet administration and at termination. Typical doses of the test substances are 5–100 mg/kg/day.
At termination, blood was collected from anesthetized rats and the serum was separated by centrifugation. Total serum cholesterol was assayed using the Sigma Diagnostics enzymatic kit for the determination of cholesterol, Procedure No. 352, modified for use with ninety-six well microtiter plates. After reconstitution with water the reagent contained 300 U/I cholesterol oxidase, 100 U/I cholesterol esterase, 1000 U/I horseradish peroxidase, 0.3 mmoles/l 4-aminoantipyrine and 30.0 mmoles/l p-hydroxybenzenesulfonate in a pH 6.5 buffer. In the reaction, cholesterol was oxidized to produce hydrogen peroxide which is used to form a quinoneimine dye. The concentration of dye formed was measured spectrophotometrically by absorbance at 490 nm after incubation at 25° C. for 30 minutes. The concentration of cholesterol was determined for each serum sample relative to a commercial standard from Sigma.
HDL cholesterol concentrations in serum were determined by separation of lipoprotein classes by fast protein liquid chromatography (FPLC) by a modification of the method of Kieft et al., J. Lipid Res., 32 (1991) 859–866. 25 ul of serum was injected onto Superose 12 and Superose 6 (Pharmacia), in series, with a column buffer of 0.05 M Tris (2-amino-2-hydroxymethyl-1,3-propanediol) and 0.15 M sodium chloride at a flow rate of 0.5 ml/min. The eluted sample was mixed on line with Boehringer-Mannheim cholesterol reagent pumped at 0.2 ml/min. The combined eluents were mixed and incubated on line through a knitted coil (Applied Biosciences) maintained at a temperature of 45 C. The eluent was monitored by measuring absorbance at 490 nm and gave a continuous absorbance signal proportional to the cholesterol concentration. The relative concentration of each lipoprotein class was calculated as the percent of total absorbance. HDL cholesterol concentration, in serum, was calculated as the percent of total cholesterol as determined by FPLC multiplied by the total serum cholesterol concentration.
Test compounds were administered at a dose of 100 mg/kg. Each test substance is administered to a group of six rats. The duration of treatment was eight days.

| SMILES | melting point [°C] | change in vivo at 100 mg/kg [1] [%] |
| --- | --- | --- |
| CCOC(=O)CON1C(=O)C(=O)N(c2cc(Cl)ccc2C)C1=S [Example 1, Ethyl 2-{[3-(5-chloro-2-methylphenyl)-4,5-dioxo-2-thioxo-1-imidazolidinyl]oxy}acetate] | 157 to 159 | 242 |
| CCOC(=O)CON1C(=O)C(=O)N(c2ccccc2SC)C1=S [Example 2, Ethyl 2-({3-[2-(methylsulfanyl)phenyl]-4,5-dioxo-2-thioxo-1-imidazolidinyl}oxy)acetate] | 112 to 114 | 196 |
| Cc1ccc(Cl)cc1N1C(=O)C(=O)N(C)C1=S [Example 5, 1-(5-Chloro-2-methylphenyl)-3-methyl-2-thioxo-4,5-imidazolidinedione] | 171 to 173 | 186 |
| Cc1cccc(C)c1N1C(=O)C(=O)N(C)C1=S [Example 6, 1-(2,6-Dimethylphenyl)-3-methyl-2-thioxo-4,5-imidazolidinedione] | 144 to 146 | 227 |
| CCN1C(=O)C(=O)N(c2ccc(F)cc2)C1=S [Example 7, 1-Ethyl-3-(4-fluorophenyl)-2-thioxo-4,5-imidazolidinedione] | 172 to 174 | 199 |
| CCN1C(=O)C(=O)N(c2c(C)cccc2C)C1=S [Example 10, 1-(2,6-Dimethylphenyl)-3-ethyl-2-thioxo-4,5-imidazolidinedione] | 103 to 105 | 36 |

The next lines start with results.

| melting point [°C] | SMILES | change in vivo at 100 mg/kg [1] [%] |
| --- | --- | --- |
| 173 to 174 | CCN1C(=O)C(=O)N(c2cc(Cl)ccc2C)C1=S [Example 3, 1-(5-Chloro-2-methylphenyl)-3-ethyl-2-thioxo-4,5-imidazolidinedione] | 19 |
| 152 to 153 | CCN1C(=O)C(=O)N(c2cc(F)ccc2C)C1=S [Example 4, 1-Ethyl-3-(5-fluoro-2-methylphenyl)-2-thioxo-4,5-imidazolidinedione] | 203 |
| 161 to 162 | CCN1C(=O)C(=O)N(c2ccc(Cl)cc2C)C1=S [Example 8, 1-(4-Chloro-2-methylphenyl)-3-ethyl-2-thioxo-4,5-imidazolidinedione] | 103 |
| 162 to 164 | C#CCN1C(=O)C(=O)N(c2cc(Cl)ccc2C)C1=S [Example 9, 1-(5-Chloro-2-methylphenyl)-3-(2-propynyl)-2-thioxo-4,5-imidazolidinedione] | 114 |
